activation, EC50 and Emax data for 10 compounds are collected here from patent US8119624B2, “Fused phenyl amido heterocyclic compounds” (Pfizer Inc., priority 2006, dated 2012).

The assay has as its target T1, Full-length glucokinase (beta cell isoform) (Homo sapiens, UniProt P35557).
T1 construct: Full-length glucokinase (beta cell isoform) was His-tagged at N-terminus; His tag (N); made in house
T1 sequence (P35557 1-465): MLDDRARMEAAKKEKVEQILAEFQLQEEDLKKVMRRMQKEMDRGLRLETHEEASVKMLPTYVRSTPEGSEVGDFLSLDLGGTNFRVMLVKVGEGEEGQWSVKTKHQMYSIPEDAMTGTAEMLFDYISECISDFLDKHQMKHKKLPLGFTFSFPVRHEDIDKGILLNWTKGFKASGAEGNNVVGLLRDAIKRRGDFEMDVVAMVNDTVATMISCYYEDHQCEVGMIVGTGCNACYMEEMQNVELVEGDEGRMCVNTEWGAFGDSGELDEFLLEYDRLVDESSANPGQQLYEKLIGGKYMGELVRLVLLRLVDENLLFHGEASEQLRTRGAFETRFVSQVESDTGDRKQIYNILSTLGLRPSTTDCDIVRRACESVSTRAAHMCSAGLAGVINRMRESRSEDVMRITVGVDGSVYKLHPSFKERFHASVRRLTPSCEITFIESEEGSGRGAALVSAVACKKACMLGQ
Description: Glucokinase biochemical assay (PK/LDH-coupled, NADH depletion at 340 nm): % activation, EC50, % max activation. As to conditions: 5 mM glucose; for activation at 10 µM: 10 uM compound, % Activation=(Va/Vo−1)×100, read-out: % Activation at 10 uM; for EC50: GK activation, read-out: EC50; for Emax: fitted maximum activation, read-out: % Max Activation. A digest of the protocol:
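Activation expressed as (Va/Vo−1)×100, where initial rates with and without compound come from NADH depletion at 340 nm over 200–900 s. Enzyme is His-tagged human beta-cell GK, full length, run at room temperature in HEPES buffer with 1 mM ATP and 5 mM glucose. DMSO 1%.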

What is called EC50 is the concentration at which the effect is half-maximal. As for `Cn1ccc(NC(=O)c2cc(Oc3ccc(C(=O)N4CCC4)c(F)c3)cc3c2CC(C)(C)O3)n1` [Example 197, 6-[4-(Azetidine-1-carbonyl)-3-fluoro-phenoxy]-2,2-dimethyl-2,3-dihydro-benzofuran-4-carboxylic acid (1-methyl-1H-pyrazol-3-yl)-amide], the activation at 10 µM stood at 77.6% and the EC50 is above 10000 nM.

For `Cn1ccc(NC(=O)c2cc(Oc3ccc(S(C)(=O)=O)c(F)c3)c3c(c2)OC(C)(C)C3)n1` [Example 114, 4-(3-Fluoro-4-methanesulfonyl-phenoxy)-2,2-dimethyl-2,3-dihydro-benzofuran-6-carboxylic acid (1-methyl-1H-pyrazol-3-yl)-amide], the activation at 10 µM worked out at 156%, the EC50 was 203 nM and the Emax is 164%.

On to `Cc1nc2cc(C(=O)Nc3ccn(C)n3)cc(Oc3ccc(S(C)(=O)=O)cc3)c2o1` [Example 368, 2-Methyl-N-(1-methyl-1H-pyrazol-3-yl)-7-[4-(methylsulfonyl)-phenoxy]-1,3-benzoxazole-5-carboxamide], for which the activation at 10 µM was determined as 48.2% and the EC50 is above 10000 nM.

For `CCS(=O)(=O)c1ccc(Oc2cc(C(=O)Nc3cnn(C)n3)cc3c2CC(C)(C)O3)cc1F` [Example 135, 4-(4-Ethanesulfonyl-3-fluoro-phenoxy)-2,2-dimethyl-2,3-dihydro-benzofuran-6-carboxylic acid (2-methyl-2H-[1,2,3]triazol-4-yl)-amide], the activation at 10 µM was found to be 239%, the EC50 amounted to 97 nM and the Emax came out at 257%.

For `Cn1ccc(NC(=O)c2cc(Oc3ccc(C(=O)N4CC(F)(F)C4)c(F)c3)c3c(c2)OC(C)(C)C3)n1` [Example 52, 4-[4-(3,3-Difluoro-azetidine-1-carbonyl)-3-fluoro-phenoxy]-2,2-dimethyl-2,3-dihydro-benzofuran-6-carboxylic acid(1-methyl-1H-pyrazol-3-yl)-amide], the activation at 10 µM was determined as 136%, the EC50 stood at 280 nM and the Emax turned out to be 151%.

With `Cc1cc2c(Oc3ccc(S(C)(=O)=O)cn3)cc(C(=O)Nc3cnc(N(C)C)cn3)cc2o1` [Example 280, N[5-(Dimethylamino)pyrazin-2-yl]-2-methyl-4-{[5-(methylsulfonyl)pyridin-2-yl]oxy}-1-benzofuran-6-carboxamide], the activation at 10 µM was 130%, the 50% effective concentration (EC50) is 2400 nM and the Emax came out at 148%.

As to `Cn1ccc(NC(=O)c2cc(Oc3ccc(S(C)(=O)=O)cc3)c3c(c2)OC(C)(CF)C3)n1` (stereo not shown) [Example 251, 2-Fluoromethyl-4-(4-methanesulfonyl-phenoxy)-2-methyl-2,3-dihydro-benzofuran-6-carboxylic acid (1-methyl-1H-pyrazol-3-yl)-amide], the activation at 10 µM amounted to 141%, the EC50 was 430 nM and the Emax is 169%.

As to `Cc1ccc(NC(=O)c2cc(Oc3ccc(S(C)(=O)=O)cc3)c3oc(C)cc3c2)nc1` [Example 337, 2-Methyl-N-(5-methylpyridin-2-yl)-7-[4-(methylsulfonyl)-phenoxy]-1-benzofuran-5-carboxamide], the activation at 10 µM worked out at 42.6%, the concentration giving a half-maximal response (EC50) was 3000 nM and the Emax came to 89%.

With `Cc1ccc(NC(=O)c2cc(OC(C)C)cc3oc(C(=O)N4CCC4)cc23)nc1` [Example 349, 2-(Azetidine-1-carbonyl)-6-isopropoxy-N-(5-methylpyridin-2-yl)benzofuran-4-carboxamide], the activation at 10 µM is -32.1%.

Consider `COCC1(C)Cc2c(Oc3cc(F)ccc3S(C)(=O)=O)cc(C(=O)Nc3ccn(C)n3)cc2O1` (stereo not shown) [Example 238, 4-(5-Fluoro-2-methanesulfonyl-phenoxy)-2-methoxymethyl-2-methyl-2,3-dihydro-benzofuran-6-carboxylic acid (1-methyl-1H-pyrazol-3-yl)-amide], for which the activation at 10 µM turned out to be 89.8% and the EC50 is above 10000 nM.
